Laboratory results taken from US9476099B2 (TRUSTEES OF DARTMOUTH COLLEGE, priority 2012, dated 2016).

Tested on: NT2/D1-R1 control and DNMT3B knockdown cells
Assay: Genome-wide expression analysis with PAM clusters, control and DNMT3B knockdown cells (Tables 8-14)
Settings: sh-Ctrl + aza, NT2/D1-R1, decitabine 10 nM 3 days

## Nc1ncn([C@H]2C[C@H](O)[C@@H](CO)O2)c(=O)n1 [aza]
  ACSS2 (NM_0010765) gene expression, Mean: 354.703
  ADCK1 (NM_020421) gene expression, Mean: 203.584
  ADCY1 (NM_021116) gene expression, Mean: 106.028
  AGAP1 (NM_014914) gene expression, Mean: 188.156
  AK056312 gene expression, Mean: 293.846
  ANKRD9 (NM_152326) gene expression, Mean: 614.423
  APEH (NM_001640) gene expression, Mean: 720.135
  APP (NM_201414) gene expression, Mean: 326.901
  C1orf115 (NM_024709) gene expression, Mean: 213.203
  C2orf34 (NM_024766) gene expression, Mean: 205.5
  C7orf47 (NM_145030) gene expression, Mean: 466.635
  C16orf35 (NM_0010394) gene expression, Mean: 630.186
  CA4 (NM_000717) gene expression, Mean: 1449.98
  CACNA2D2 (NM_006030) gene expression, Mean: 304.761
  CD24 (NM_013230) gene expression, Mean: 1797.88
  CD248 (NM_020404) gene expression, Mean: 178.853
  CDC42EP5 (NM_145057) gene expression, Mean: 219.473
  CDH3 (NM_001793) gene expression, Mean: 651.295
  CEBPB (NM_005194) gene expression, Mean: 1388.19
  CHST13 (NM_152889) gene expression, Mean: 151.937
  CLASP1 (NM_015282) gene expression, Mean: 301.334
  CLIP2 (NM_032421) gene expression, Mean: 175.136
  COMMD1 (NM_152516) gene expression, Mean: 235.362
  COMMD7 (NM_0010993) gene expression, Mean: 915.427
  CRMP1 (NM_0010148) gene expression, Mean: 328.665
  CTNNBIP1 (NM_020248) gene expression, Mean: 144.946
  CXCL16 (NM_022059) gene expression, Mean: 279.669
  CYP2F1 (NM_000774) gene expression, Mean: 126.222
  CYP2S1 (NM_030622) gene expression, Mean: 604.679
  DBC1 (NM_014618) gene expression, Mean: 197.271
  DDIT4 (NM_019058) gene expression, Mean: 522.11
  DGKQ (NM_001347) gene expression, Mean: 247.199
  DLL3 (NM_016941) gene expression, Mean: 120.925
  DPYSL3 (NM_001387) gene expression, Mean: 602.964
  DYM (NM_017653) gene expression, Mean: 217.362
  DYSF (NM_003494) gene expression, Mean: 188.291
  EEF2K (NM_013302) gene expression, Mean: 243.652
  EPHA1 (NM_005232) gene expression, Mean: 497.427
  EVI5L (NM_145245) gene expression, Mean: 247.813
  EVL (NM_016337) gene expression, Mean: 537.424
  EXTL3 (NM_001440) gene expression, Mean: 695.163
  F11R (NM_016946) gene expression, Mean: 182.523
  FAF1 (NM_007051) gene expression, Mean: 209.978
  FAM125A (NM_138401) gene expression, Mean: 564.523
  FAM127A (NM_0010781) gene expression, Mean: 867.222
  FCGBP (NM_003890) gene expression, Mean: 247.577
  FDFT1 (NM_004462) gene expression, Mean: 417.59
  FIGNL2 (NM_0010136) gene expression, Mean: 231.29
  FLNB (NM_001457) gene expression, Mean: 679.266
  FOXN3 (NM_005197) gene expression, Mean: 274.017
  GAL (NM_015973) gene expression, Mean: 1375.17
  GAS7 (NM_201433) gene expression, Mean: 225.598
  GLG1 (NM_012201) gene expression, Mean: 958.607
  GRAMD1A (NM_020895) gene expression, Mean: 767.701
  GTF3C1 (NM_001520) gene expression, Mean: 387.976
  HCFC1R1 (NM_0010020) gene expression, Mean: 427.673
  HESX1 (NM_003865) gene expression, Mean: 204.885
  HINT2 (NM_032593) gene expression, Mean: 537.794
  HIST3H2A (NM_033445) gene expression, Mean: 314.077
  HIST4H4 (NM_003541) gene expression, Mean: 218.72
  HK1 (NM_033500) gene expression, Mean: 3617.1
  IDH1 (NM_005896) gene expression, Mean: 668.525
  IL21R (NM_181078) gene expression, Mean: 154.278
  JPH3 (NM_020655) gene expression, Mean: 167.797
  KIF1A (NM_004321) gene expression, Mean: 160.071
  KIF1B (NM_015074) gene expression, Mean: 252.94
  LDB2 (NM_001290) gene expression, Mean: 202.228
  LDOC1 (NM_012317) gene expression, Mean: 502.418
  LHFPL4 (NM_198560) gene expression, Mean: 215.926
  LONP1 (NM_004793) gene expression, Mean: 779.763
  LPCAT3 (NM_005768) gene expression, Mean: 477.318
  LRBA (NM_006726) gene expression, Mean: 170.16
  LRRC33 (NM_198565) gene expression, Mean: 145.858
  MAPK3 (NM_0010400) gene expression, Mean: 277.581
  MAPKAP1 (NM_0010066) gene expression, Mean: 182.648
  MED30 (NM_080651) gene expression, Mean: 647.26
  MID1IP1 (NM_021242) gene expression, Mean: 649.056
  MKRN1 (NM_013446) gene expression, Mean: 2856.3
  MSRB2 (NM_012228) gene expression, Mean: 934.409
  MYO5C (NM_018728) gene expression, Mean: 151.991
  NANOG (NM_024865) gene expression, Mean: 706.99
  NCOR2 (NM_006312) gene expression, Mean: 493.089
  NDUFS4 (NM_002495) gene expression, Mean: 337.053
  NFE2L3 (NM_004289) gene expression, Mean: 222.942
  NGFRAP1 (NM_206917) gene expression, Mean: 1121.05
  NKX3-2 (NM_001189) gene expression, Mean: 409.938
  NM_014745 gene expression, Mean: 379.916
  NPAS1 (NM_002517) gene expression, Mean: 201.893
  NPTX2 (NM_002523) gene expression, Mean: 367.499
  ODZ3 (NM_0010804) gene expression, Mean: 189.247
  P4HB (NM_000918) gene expression, Mean: 1383.99
  PACSIN1 (NM_020804) gene expression, Mean: 216.839
  PCDH19 (NM_020766) gene expression, Mean: 151.727
  PCK2 (NM_0010180) gene expression, Mean: 116.02
  PDZD4 (NM_032512) gene expression, Mean: 182.348
  PEMT (NM_148172) gene expression, Mean: 595.006
  PEX14 (NM_004565) gene expression, Mean: 250.351
  PGM1 (NM_002633) gene expression, Mean: 1814.18
  PHC1 (NM_004426) gene expression, Mean: 951.052
  PIM2 (NM_006875) gene expression, Mean: 985.879
  PITPNC1 (NM_181671) gene expression, Mean: 180.093
  PNKP (NM_007254) gene expression, Mean: 424.886
  PPAP2A (NM_176895) gene expression, Mean: 348.062
  PPP1R1B (NM_181505) gene expression, Mean: 238.675
  PQLC3 (NM_152391) gene expression, Mean: 198.571
  PRSS8 (NM_002773) gene expression, Mean: 991.013
  PSAT1 (NM_021154) gene expression, Mean: 1824.54
  PTOV1 (NM_017432) gene expression, Mean: 720.62
  PTPLA (NM_014241) gene expression, Mean: 227.16
  RAB3IP (NM_175624) gene expression, Mean: 601.056
  RALY (NM_007367) gene expression, Mean: 833.663
  RASIP1 (NM_017805) gene expression, Mean: 185.874
  RASL11B (NM_023940) gene expression, Mean: 432.564
  RCN2 (NM_002902) gene expression, Mean: 501.026
  REEP6 (NM_138393) gene expression, Mean: 405.813
  RNF130 (NM_018434) gene expression, Mean: 174.702
  ROD1 (NM_005156) gene expression, Mean: 637.491
  RPS6KA2 (NM_0010069) gene expression, Mean: 141.693
  SAT1 (NM_002970) gene expression, Mean: 1895.82
  SCARB1 (NM_005505) gene expression, Mean: 433.694
  SEMA4B (NM_198925) gene expression, Mean: 288.428
  SEMA4D (NM_006378) gene expression, Mean: 315.221
  SEMA6B (NM_032108) gene expression, Mean: 218.592
  SH2B3 (NM_005475) gene expression, Mean: 424.579
  SLC3A2 (NM_0010132) gene expression, Mean: 898.448
  SLC8A2 (NM_015063) gene expression, Mean: 166.295
  SLC16A10 (NM_018593) gene expression, Mean: 159.709
  SLC22A23 (NM_021945) gene expression, Mean: 233.534
  SND1 (NM_014390) gene expression, Mean: 423.122
  SOX2 (NM_003106) gene expression, Mean: 271.23
  SPRY1 (NM_005841) gene expression, Mean: 248.973
  SPSB2 (NM_032641) gene expression, Mean: 474.363
  SRPX (NM_006307) gene expression, Mean: 222.901
  SURF6 (NM_006753) gene expression, Mean: 1293.98
  TBCD (NM_005993) gene expression, Mean: 256.961
  TCEA2 (NM_198723) gene expression, Mean: 483.559
  TCF7L1 (NM_031283) gene expression, Mean: 144.548
  TIMP4 (NM_003256) gene expression, Mean: 389.521
  TMC6 (NM_007267) gene expression, Mean: 346.392
  TMEM145 (NM_173633) gene expression, Mean: 166.627
  TPST2 (NM_0010085) gene expression, Mean: 370.953
  TRAPPC9 (NM_031466) gene expression, Mean: 104.733
  TSPAN9 (NM_006675) gene expression, Mean: 1313.95
  TUBB4 (NM_006087) gene expression, Mean: 253.587
  UBE2E2 (NM_152653) gene expression, Mean: 347.293
  UNC84B (NM_015374) gene expression, Mean: 465.92
  VCX2 (NM_016378) gene expression, Mean: 415.874
  VCX3A (NM_016379) gene expression, Mean: 1237.23
  VCX3B (NM_0010018) gene expression, Mean: 1368.4
  VSNL1 (NM_003385) gene expression, Mean: 249.848
  WDR8 (NM_017818) gene expression, Mean: 619.054
  XBP1 (NM_0010795) gene expression, Mean: 505.041
  XM_373896 gene expression, Mean: 276.846
  XM_926633 gene expression, Mean: 1782.67
  XM_932919 gene expression, Mean: 283.159
  XM_933796 gene expression, Mean: 270.602
  XM_943677 gene expression, Mean: 245.788
  ZBTB46 (NM_025224) gene expression, Mean: 207.588
  ZSWIM4 (NM_023072) gene expression, Mean: 393.591
First HIST1H2BK entry (r906)
  HIST1H2BK (NM_080593) gene expression, Mean: 1316.1
First TRPC4AP entry (r880)
  TRPC4AP (NM_015638) gene expression, Mean: 633.52
Second HIST1H2BK entry (r952)
  HIST1H2BK (NM_080593) gene expression, Mean: 332.966
Second TRPC4AP entry (r892)
  TRPC4AP (NM_015638) gene expression, Mean: 1094.19
